Reference: the supplement of paper PMC10307832

Legend:
Experiment in all cases: relative viability (nuclei count vs DMSO), 5 days (fraction); higher = more cells survive
EBC-1 = test system: EBC-1
How it was run: (§1)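 Medians of duplicate plates are given as relative viability. That measure is the nuclei count in treated wells divided by the count in vehicle wells. Counts were taken on 4× images of lung cancer cell lines in 1536-well plates, 5 days after pin-tool dosing the day after seeding with one drug alone or a fixed anchor-drug dose plus five library-drug doses (not always all listed) in √10 steps.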

NCI-H1703 = test system: NCI-H1703
How it was run: as §1

NCI-H1563 = test system: NCI-H1563
How it was run: as §1

IA-LM = test system: IA-LM
How it was run: as §1

Calu-6 = test system: Calu-6
How it was run: as §1

NCI-H1299 = test system: NCI-H1299
How it was run: as §1

A549 = test system: A549
How it was run: as §1

SMILES | relative viability (EBC-1; first compound 0.08 µM) | relative viability (EBC-1; first compound 0.253 µM) | relative viability (EBC-1; first compound 0.8 µM) | relative viability (EBC-1; first compound 2.53 µM) | relative viability (EBC-1; first compound 8 µM) | relative viability (NCI-H1703; first compound 0.08 µM) | relative viability (NCI-H1703; first compound 0.253 µM) | relative viability (NCI-H1703; first compound 0.8 µM) | relative viability (NCI-H1703; first compound 2.53 µM) | relative viability (NCI-H1703; first compound 8 µM) | relative viability (NCI-H1563; first compound 0.08 µM) | relative viability (NCI-H1563; first compound 0.253 µM) | relative viability (NCI-H1563; first compound 0.8 µM) | relative viability (NCI-H1563; first compound 2.53 µM) | relative viability (NCI-H1563; first compound 8 µM) | relative viability (IA-LM; first compound 0.253 µM) | relative viability (IA-LM; first compound 0.8 µM) | relative viability (IA-LM; first compound 2.53 µM) | relative viability (IA-LM; first compound 8 µM) | relative viability (Calu-6; first compound 0.08 µM) | relative viability (Calu-6; first compound 0.253 µM) | relative viability (Calu-6; first compound 0.8 µM) | relative viability (Calu-6; first compound 2.53 µM) | relative viability (Calu-6; first compound 8 µM) | relative viability (NCI-H1299; first compound 0.08 µM) | relative viability (NCI-H1299; first compound 0.253 µM) | relative viability (NCI-H1299; first compound 0.8 µM) | relative viability (NCI-H1299; first compound 2.53 µM) | relative viability (NCI-H1299; first compound 8 µM) | relative viability (A549; first compound 0.08 µM) | relative viability (A549; first compound 0.253 µM) | relative viability (A549; first compound 0.8 µM) | relative viability (A549; first compound 2.53 µM) | relative viability (A549; first compound 8 µM) | relative viability (IA-LM; first compound 0.08 µM)
O=c1[nH]c2ccccc2n1C1CCN(CCCC(c2ccc(F)cc2)c2ccc(F)cc2)CC1 [Pimozide] + CS(=O)(=O)N1CCN(Cc2cc3nc(-c4cccc5[nH]ncc45)nc(N4CCOCC4)c3s2)CC1 [Pictilisib] (partner 1 µM) | 0.393 | 0.37 | 0.364 | 0.269 | 0.27 | 0.24 | 0.273 | 0.296 | 0.264 | 0.246 | 0.654 | 0.646 | 0.667 | 0.642 | 0.637 | 0.28 | 0.288 | 0.404 | 0.438 | 0.952 | 0.984 | 0.808 | 0.84 | 0.872 | 0.788 | 0.729 | 0.666 | 0.745 | 0.703 | 0.524 | 0.472 | 0.494 | 0.385 | 0.448 | –
O=c1[nH]c2ccccc2n1C1CCN(CCCC(c2ccc(F)cc2)c2ccc(F)cc2)CC1 [Pimozide] + Cc1nc(NC(=O)N2CCC[C@H]2C(N)=O)sc1-c1ccnc(C(C)(C)C(F)(F)F)c1 [Alpelisib] (partner 2 µM) | 0.895 | 0.724 | 0.823 | 0.796 | 0.728 | 0.323 | 0.325 | 0.385 | 0.258 | 0.274 | 0.919 | 0.814 | 0.819 | 0.798 | 0.739 | 0.846 | 0.666 | 0.894 | 0.853 | 0.938 | 0.999 | 0.92 | 0.844 | 0.883 | 1.04 | 0.981 | 1.04 | 1.07 | 1.12 | 0.727 | 0.762 | 0.678 | 0.707 | 0.617 | 0.695
Cc1cnc(-c2cnc(NCCNc3ccc(C#N)cn3)nc2-c2ccc(Cl)cc2Cl)[nH]1 + CC(C)C[C@H](NC(=O)[C@H](Cc1ccccc1)NC(=O)c1cnccn1)B(O)O [Bortezomib] (partner 0.002 µM) | 0.607 | – | 0.546 | 0.509 | – | 0.337 | 0.352 | 0.5 | 0.699 | – | 0.831 | 0.944 | 0.827 | 0.914 | – | 0.855 | 1.06 | 0.891 | – | 0.933 | 0.996 | 1.06 | 1.03 | – | 1.05 | 1 | 1.02 | 0.969 | – | – | – | – | – | – | 0.849
